Source: ChEMBL document CHEMBL1136466, “KMI-008, a novel beta-secretase inhibitor containing a hydroxymethylcarbonyl isostere as a transition-state mimic: design and synthesis of substrate-based octapeptides” (Bioorg Med Chem Lett, 2003)
Starred links: 1 amine or outer side, 2 acyl side, 3 side chain; linkers in the order of their positions; H or OH if unused. Non-standard residues stand in square brackets, D forms with d. Residues, ends and D or L forms follow the SMILES beside them. β3hPhe(2R-OH) = O=C([C@H](O)[C@H](Cc1ccccc1)N[*:1])[*:2]; X1 = CC(C)C[C@H](N[*:1])[C@@H](O)C(=O)[*:2]

target: T1, Beta-secretase 1 (Homo sapiens, UniProt P56817); assay: Inhibitory activity against Beta-secretase 1 was determined
T1 sequence (P56817 whole entry): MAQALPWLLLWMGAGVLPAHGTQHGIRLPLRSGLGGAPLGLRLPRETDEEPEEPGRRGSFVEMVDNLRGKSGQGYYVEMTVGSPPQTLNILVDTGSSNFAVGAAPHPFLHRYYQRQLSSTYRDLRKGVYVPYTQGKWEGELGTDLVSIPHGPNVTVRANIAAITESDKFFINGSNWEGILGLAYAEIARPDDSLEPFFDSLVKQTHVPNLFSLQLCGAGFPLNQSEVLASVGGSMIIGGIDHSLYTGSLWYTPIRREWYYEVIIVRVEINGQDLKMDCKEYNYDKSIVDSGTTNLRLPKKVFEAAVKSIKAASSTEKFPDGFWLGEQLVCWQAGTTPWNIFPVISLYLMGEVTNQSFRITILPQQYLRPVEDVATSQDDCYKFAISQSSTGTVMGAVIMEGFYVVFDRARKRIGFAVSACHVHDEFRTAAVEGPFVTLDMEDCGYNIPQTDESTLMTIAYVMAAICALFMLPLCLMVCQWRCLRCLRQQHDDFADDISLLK

| IC50 | Structure (SMILES) |
| --- | --- |
| 413 nM | CC(C)C[C@H](NC(=O)[C@@H](NC(=O)[C@@H](N)CCC(=O)O)C(C)C)C(=O)N[C@@H](Cc1ccccc1)[C@@H](O)C(=O)N[C@@H](CC(=O)O)C(=O)N[C@@H](C)C(=O)N[C@@H](CCC(=O)O)C(=O)N[C@@H](Cc1ccccc1)C(=O)O [HGLUVALLEUPNSASPALAGLUPHEOH] |

target: T1, Beta-secretase 1; assay: Inhibition of beta-secretase 1 (BACE) was determined at the concentration of 2 uM

| inhibition | Structure (SMILES) |
| --- | --- |
| 34% | CC(C)C[C@H](NC(=O)[C@@H](NC(=O)[C@@H](N)CCC(=O)O)C(C)C)C(=O)N[C@@H](Cc1ccccc1)[C@@H](O)C(=O)N1CSC(C)(C)C1C(=O)N[C@@H](C)C(=O)N[C@@H](CCC(=O)O)C(=O)N[C@@H](Cc1ccccc1)C(=O)O (some centres not stated) |
| 53% | CC(C)C[C@H](NC(=O)[C@@H](NC(=O)[C@@H](N)CCC(=O)O)C(C)C)C(=O)N[C@@H](Cc1ccccc1)[C@@H](O)C(=O)N[C@@H](C)C(=O)N[C@@H](C)C(=O)N[C@@H](CCC(=O)O)C(=O)N[C@@H](Cc1ccccc1)C(=O)O |
| 54% | CC(C)C[C@H](NC(=O)[C@@H](NC(=O)[C@@H](N)CCC(=O)O)C(C)C)C(=O)N[C@@H](Cc1ccccc1)[C@@H](O)C(=O)N[C@@H](CC(N)=O)C(=O)N[C@@H](C)C(=O)N[C@@H](CCC(=O)O)C(=O)N[C@@H](Cc1ccccc1)C(=O)O |
| 64% | CC(C)C[C@H](NC(=O)[C@@H](NC(=O)[C@@H](N)CCC(=O)O)C(C)C)C(=O)N[C@@H](Cc1ccccc1)[C@@H](O)C(=O)N[C@@H](CCC(=O)O)C(=O)N[C@@H](C)C(=O)N[C@@H](CCC(=O)O)C(=O)N[C@@H](Cc1ccccc1)C(=O)O |
| 41% | CC(C)C[C@H](NC(=O)[C@@H](NC(=O)[C@@H](N)CCC(=O)O)C(C)C)C(=O)N[C@@H](Cc1ccccc1)[C@@H](O)C(=O)N[C@@H](CCC(N)=O)C(=O)N[C@@H](C)C(=O)N[C@@H](CCC(=O)O)C(=O)N[C@@H](Cc1ccccc1)C(=O)O |
| 34% | CC(C)C[C@H](NC(=O)[C@@H](NC(=O)[C@@H](N)CCC(=O)O)C(C)C)C(=O)N[C@H](Cc1ccccc1)[C@@H](O)C(=O)N1CSC(C)(C)C1C(=O)N[C@@H](C)C(=O)N[C@@H](CCC(=O)O)C(=O)N[C@@H](Cc1ccccc1)C(=O)O (some centres not stated) |
| < 20% | CC(C)C[C@H](NC(=O)[C@@H](NC(=O)[C@@H](N)CCC(=O)O)C(C)C)C(=O)N[C@H](Cc1ccccc1)[C@@H](O)C(=O)N[C@@H](C)C(=O)N[C@@H](C)C(=O)N[C@@H](CCC(=O)O)C(=O)N[C@@H](Cc1ccccc1)C(=O)O |
| 66% | CC(C)C[C@H](NC(=O)[C@@H](NC(=O)[C@@H](N)CCC(=O)O)C(C)C)C(=O)N[C@H](Cc1ccccc1)[C@@H](O)C(=O)N[C@@H](CC(=O)O)C(=O)N[C@@H](C)C(=O)N[C@@H](CCC(=O)O)C(=O)N[C@@H](Cc1ccccc1)C(=O)O |
| 22% | CC(C)C[C@H](NC(=O)[C@@H](NC(=O)[C@@H](N)CCC(=O)O)C(C)C)C(=O)N[C@H](Cc1ccccc1)[C@@H](O)C(=O)N[C@@H](CC(N)=O)C(=O)N[C@@H](C)C(=O)N[C@@H](CCC(=O)O)C(=O)N[C@@H](Cc1ccccc1)C(=O)O |
| 47% | CC(C)C[C@H](NC(=O)[C@@H](NC(=O)[C@@H](N)CCC(=O)O)C(C)C)C(=O)N[C@H](Cc1ccccc1)[C@@H](O)C(=O)N[C@@H](CCC(=O)O)C(=O)N[C@@H](C)C(=O)N[C@@H](CCC(=O)O)C(=O)N[C@@H](Cc1ccccc1)C(=O)O |
| 33% | CC(C)C[C@H](NC(=O)[C@@H](NC(=O)[C@@H](N)CCC(=O)O)C(C)C)C(=O)N[C@H](Cc1ccccc1)[C@@H](O)C(=O)N[C@@H](CCC(N)=O)C(=O)N[C@@H](C)C(=O)N[C@@H](CCC(=O)O)C(=O)N[C@@H](Cc1ccccc1)C(=O)O |
| 26% | CC[C@@H](C)[C@H](NC(=O)[C@@H](N)CCC(=O)O)C(=O)N[C@@H](CC(C)C)C(=O)N[C@@H](Cc1ccccc1)[C@@H](O)C(=O)N[C@@H](CC(=O)O)C(=O)N[C@@H](C)C(=O)N[C@@H](CCC(=O)O)C(=O)N[C@@H](Cc1ccccc1)C(=O)O |
| < 20% | CC(C)C[C@H](NC(=O)[C@H](Cc1ccccc1)NC(=O)[C@@H](N)CCC(=O)O)C(=O)N[C@@H](Cc1ccccc1)[C@@H](O)C(=O)N[C@@H](CC(=O)O)C(=O)N[C@@H](C)C(=O)N[C@@H](CCC(=O)O)C(=O)N[C@@H](Cc1ccccc1)C(=O)O (H-EFL[β3hPhe(2R-OH)]DAEF-OH) |
| < 20% | CC(C)C[C@H](NC(=O)[C@H](CC(C)C)NC(=O)[C@@H](N)CCC(=O)O)C(=O)N[C@@H](Cc1ccccc1)[C@@H](O)C(=O)N[C@@H](CC(=O)O)C(=O)N[C@@H](C)C(=O)N[C@@H](CCC(=O)O)C(=O)N[C@@H](Cc1ccccc1)C(=O)O (H-ELL[β3hPhe(2R-OH)]DAEF-OH) |
| < 20% | CSCC[C@H](NC(=O)[C@@H](N)CCC(=O)O)C(=O)N[C@@H](CC(C)C)C(=O)N[C@@H](Cc1ccccc1)[C@@H](O)C(=O)N[C@@H](CC(=O)O)C(=O)N[C@@H](C)C(=O)N[C@@H](CCC(=O)O)C(=O)N[C@@H](Cc1ccccc1)C(=O)O (H-EML[β3hPhe(2R-OH)]DAEF-OH) |
| 25% | CC(C)[C@H](NC(=O)[C@@H](N)CCC(=O)O)C(=O)N[C@@H](CC(=O)O)C(=O)N[C@@H](Cc1ccccc1)[C@@H](O)C(=O)N[C@@H](CC(=O)O)C(=O)N[C@@H](C)C(=O)N[C@@H](CCC(=O)O)C(=O)N[C@@H](Cc1ccccc1)C(=O)O (H-EVD[β3hPhe(2R-OH)]DAEF-OH) |

| inhibition | Structure (SMILES) |
| --- | --- |
| 30% | CC(C)[C@H](NC(=O)[C@@H](N)CCC(=O)O)C(=O)N[C@@H](CCC(=O)O)C(=O)N[C@@H](Cc1ccccc1)[C@@H](O)C(=O)N[C@@H](CC(=O)O)C(=O)N[C@@H](C)C(=O)N[C@@H](CCC(=O)O)C(=O)N[C@@H](Cc1ccccc1)C(=O)O (H-EVE[β3hPhe(2R-OH)]DAEF-OH) |
| < 20% | CC(C)[C@H](NC(=O)[C@@H](N)CCC(=O)O)C(=O)N[C@@H](CCCCN)C(=O)N[C@@H](Cc1ccccc1)[C@@H](O)C(=O)N[C@@H](CC(=O)O)C(=O)N[C@@H](C)C(=O)N[C@@H](CCC(=O)O)C(=O)N[C@@H](Cc1ccccc1)C(=O)O (H-EVK[β3hPhe(2R-OH)]DAEF-OH) |
| 78% | CC(C)C[C@H](NC(=O)[C@@H](NC(=O)[C@@H](N)CCC(=O)O)C(C)C)C(=O)N[C@@H](Cc1ccccc1)[C@@H](O)C(=O)N[C@@H](C)C(=O)N[C@@H](CCC(=O)O)C(=O)N[C@@H](CCC(=O)O)C(=O)N[C@@H](Cc1ccccc1)C(=O)O (H-EVL[β3hPhe(2R-OH)]AEEF-OH) |
| 60% | CC(C)C[C@H](NC(=O)[C@@H](NC(=O)[C@@H](N)CCC(=O)O)C(C)C)C(=O)N[C@@H](Cc1ccccc1)[C@@H](O)C(=O)N[C@@H](C)C(=O)N[C@@H](Cc1ccccc1)C(=O)N[C@@H](CCC(=O)O)C(=O)N[C@@H](Cc1ccccc1)C(=O)O (H-EVL[β3hPhe(2R-OH)]AFEF-OH) |
| 41% | CC(C)C[C@H](NC(=O)[C@H](C)NC(=O)[C@H](O)[C@H](Cc1ccccc1)NC(=O)[C@H](CC(C)C)NC(=O)[C@@H](NC(=O)[C@@H](N)CCC(=O)O)C(C)C)C(=O)N[C@@H](CCC(=O)O)C(=O)N[C@@H](Cc1ccccc1)C(=O)O (H-EVL[β3hPhe(2R-OH)]ALEF-OH) |
| 30% | CC(C)C[C@H](NC(=O)[C@@H](NC(=O)[C@@H](N)CCC(=O)O)C(C)C)C(=O)N[C@@H](Cc1ccccc1)[C@@H](O)C(=O)N[C@@H](C)C(=O)N[C@H](C(=O)N[C@@H](CCC(=O)O)C(=O)N[C@@H](Cc1ccccc1)C(=O)O)C(C)C (H-EVL[β3hPhe(2R-OH)]AVEF-OH) |
| 67% | CC(C)C[C@H](NC(=O)[C@@H](NC(=O)[C@@H](N)CCC(=O)O)C(C)C)C(=O)N[C@@H](Cc1ccccc1)[C@@H](O)C(=O)N[C@@H](CC(=O)O)C(=O)N[C@@H](C)C(=O)N[C@@H](Cc1ccccc1)C(=O)N[C@@H](Cc1ccccc1)C(=O)O (H-EVL[β3hPhe(2R-OH)]DAFF-OH) |
| 57% | CC(C)C[C@H](NC(=O)[C@H](C)NC(=O)[C@H](CC(=O)O)NC(=O)[C@H](O)[C@H](Cc1ccccc1)NC(=O)[C@H](CC(C)C)NC(=O)[C@@H](NC(=O)[C@@H](N)CCC(=O)O)C(C)C)C(=O)N[C@@H](Cc1ccccc1)C(=O)O (H-EVL[β3hPhe(2R-OH)]DALF-OH) |
| 56% | CC(C)C[C@H](NC(=O)[C@@H](NC(=O)[C@@H](N)CCC(=O)O)C(C)C)C(=O)N[C@@H](Cc1ccccc1)[C@@H](O)C(=O)N[C@@H](CC(=O)O)C(=O)N[C@@H](C)C(=O)N[C@@H](CCC(N)=O)C(=O)N[C@@H](Cc1ccccc1)C(=O)O (H-EVL[β3hPhe(2R-OH)]DAQF-OH) |
| 57% | CC(C)C[C@H](NC(=O)[C@@H](NC(=O)[C@@H](N)CCC(=O)O)C(C)C)C(=O)N[C@@H](Cc1ccccc1)[C@@H](O)C(=O)N[C@@H](CC(=O)O)C(=O)N[C@@H](C)C(=O)N[C@H](C(=O)N[C@@H](Cc1ccccc1)C(=O)O)C(C)C (H-EVL[β3hPhe(2R-OH)]DAVF-OH) |
| 42% | CSCC[C@H](NC(=O)[C@@H](NC(=O)[C@@H](N)CCC(=O)O)C(C)C)C(=O)N[C@@H](Cc1ccccc1)[C@@H](O)C(=O)N[C@@H](CC(=O)O)C(=O)N[C@@H](C)C(=O)N[C@@H](CCC(=O)O)C(=O)N[C@@H](Cc1ccccc1)C(=O)O (H-EVM[β3hPhe(2R-OH)]DAEF-OH) |
| < 20% | CC(C)C[C@H](NC(=O)[C@H](CC(N)=O)NC(=O)[C@@H](NC(=O)[C@@H](N)CCC(=O)O)C(C)C)[C@@H](O)C(=O)N[C@@H](CC(=O)O)C(=O)N[C@@H](C)C(=O)N[C@@H](CCC(=O)O)C(=O)N[C@@H](Cc1ccccc1)C(=O)O (H-EVN[X1]DAEF-OH) |
| 24% | CC(C)[C@H](NC(=O)[C@@H](N)CCC(=O)O)C(=O)N[C@@H](CC(N)=O)C(=O)N[C@@H](Cc1ccccc1)[C@@H](O)C(=O)N[C@@H](CC(=O)O)C(=O)N[C@@H](C)C(=O)N[C@@H](CCC(=O)O)C(=O)N[C@@H](Cc1ccccc1)C(=O)O (H-EVN[β3hPhe(2R-OH)]DAEF-OH) |
| 36% | CC(C)[C@H](NC(=O)[C@@H](N)CCC(=O)O)C(=O)N[C@@H](CCC(N)=O)C(=O)N[C@@H](Cc1ccccc1)[C@@H](O)C(=O)N[C@@H](CC(=O)O)C(=O)N[C@@H](C)C(=O)N[C@@H](CCC(=O)O)C(=O)N[C@@H](Cc1ccccc1)C(=O)O (H-EVQ[β3hPhe(2R-OH)]DAEF-OH) |
| > 90% | CC(C)C[C@H](NC(=O)[C@@H](NC(=O)[C@@H](N)CCC(=O)O)C(C)C)C(=O)N[C@@H](Cc1ccccc1)[C@@H](O)C(=O)N[C@@H](CC(=O)O)C(=O)N[C@@H](C)C(=O)N[C@@H](CCC(=O)O)C(=O)N[C@@H](Cc1ccccc1)C(=O)O [HGLUVALLEUPNSASPALAGLUPHEOH] |
